Our source for the Ki values is BindingDB's records for doi:10.1021/jm0503751 (University of Dublin, 2006).

The target of assay [1] is T1, Alpha-1B adrenergic receptor (Mus musculus, UniProt Q05D47).
T1 sequence (Q05D47 whole entry): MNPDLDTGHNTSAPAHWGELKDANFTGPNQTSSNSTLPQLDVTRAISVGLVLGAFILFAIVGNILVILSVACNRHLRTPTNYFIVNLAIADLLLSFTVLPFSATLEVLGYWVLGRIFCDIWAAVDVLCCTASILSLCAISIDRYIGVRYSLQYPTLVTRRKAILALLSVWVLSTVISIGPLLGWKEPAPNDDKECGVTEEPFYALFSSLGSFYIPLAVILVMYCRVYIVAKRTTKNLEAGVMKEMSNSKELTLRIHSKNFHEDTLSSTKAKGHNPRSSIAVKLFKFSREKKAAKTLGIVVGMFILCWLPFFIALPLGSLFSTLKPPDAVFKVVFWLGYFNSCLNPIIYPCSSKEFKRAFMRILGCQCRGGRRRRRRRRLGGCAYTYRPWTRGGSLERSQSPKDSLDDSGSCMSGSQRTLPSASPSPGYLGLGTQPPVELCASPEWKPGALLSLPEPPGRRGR

The target of assay [2] is T2, Alpha-1A adrenergic receptor (Homo sapiens, UniProt P35348).
T2 sequence (P35348 whole entry): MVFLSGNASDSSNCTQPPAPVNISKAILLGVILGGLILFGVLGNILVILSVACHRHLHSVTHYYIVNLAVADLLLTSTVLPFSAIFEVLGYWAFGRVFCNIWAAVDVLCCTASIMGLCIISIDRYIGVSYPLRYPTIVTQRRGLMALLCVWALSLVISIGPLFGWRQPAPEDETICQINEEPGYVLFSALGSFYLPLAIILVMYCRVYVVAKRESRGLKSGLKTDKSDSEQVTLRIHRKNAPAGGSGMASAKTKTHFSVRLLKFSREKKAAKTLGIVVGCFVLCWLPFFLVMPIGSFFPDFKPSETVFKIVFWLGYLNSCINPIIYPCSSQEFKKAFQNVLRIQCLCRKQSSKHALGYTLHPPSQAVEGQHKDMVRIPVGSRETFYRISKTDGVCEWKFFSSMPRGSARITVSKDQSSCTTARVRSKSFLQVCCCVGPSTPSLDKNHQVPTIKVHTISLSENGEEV

As for `Cc1c[nH]c(=O)n(CCCN2CCN(c3ccc(F)cc3OCC(F)(F)F)CC2)c1=O`, the values for the Ki in assay [1] and in assay [2] were 79 nM and 100 nM, respectively.
Regarding `CC(C)(Cc1c[nH]c2ccc(Cl)cc12)NCCOc1ccccc1OCC1CC1`, the inhibitory constant (Ki) in assay [1] and in assay [2] was 16 nM each time.
In the case of `COc1cc2nc(N3CCN(C(=O)C4CCCO4)CC3)nc(N)c2cc1OC` (centres undefined) [6,7-dimethoxy-2-[4-(tetrahydrofuran-2-ylcarbonyl)piperazin-1-yl]quinazolin-4-amine], the Ki (as a rule, a dissociation constant, usually derived from enzyme kinetics or from competition with a known ligand) in assay [1] was 2 nM.
In assay [1], `COc1cc2nc(N(C)CCCNC(=O)C3CCCO3)nc(N)c2cc1OC` (centres undefined) [N-{3-[(4-amino-6,7-dimethoxyquinazolin-2-yl)(methyl)amino]propyl}tetrahydrofuran-2-carboxamide] came in with a Ki of 10 nM.
Still for that read-out and setting: as for `COc1cc2nc(N3CCN(C(=O)C4COc5ccccc5O4)CC3)nc(N)c2cc1OC` (centres undefined) [UK 33,274], the figure is 1 nM.
Consider `COc1ccccc1N1CCN(CCCNc2c(C)c(=O)n(C)c(=O)n2C)CC1` [Urapidil-5-methyl], for which the Ki in assay [1] turned out to be 40 nM; in assay [2], 10 nM.
